Measurements reported in ChEMBL document CHEMBL5506066, “Potency-Enhanced Peptidomimetic VHL Ligands with Improved Oral Bioavailability” (J Med Chem, 2024).

Columns and labels:
[1] = biological target: T1, von Hippel-Lindau disease tumor suppressor (Homo sapiens, UniProt P40337); test: biochemical
Description: Binding affinity to VHL (unknown origin)-NanoLuc fusion protein expressed in HEK293 cells assessed as apparent dissociation constant incubated for 30 mins in presence of digitonin by NanoBRET assay

[2] = biological target: T1, von Hippel-Lindau disease tumor suppressor

T1 sequence (P40337 whole entry): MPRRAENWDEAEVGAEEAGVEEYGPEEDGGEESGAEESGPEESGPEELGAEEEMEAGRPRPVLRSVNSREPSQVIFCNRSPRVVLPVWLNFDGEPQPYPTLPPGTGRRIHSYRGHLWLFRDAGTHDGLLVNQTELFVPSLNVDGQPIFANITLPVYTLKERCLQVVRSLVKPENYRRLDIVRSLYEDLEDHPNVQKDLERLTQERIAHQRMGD

Row | SMILES | Kd [1] [µM] | Kd [2] [µM]
1 | NC(=O)[C@@H](Cc1ccc(-c2ccccc2)cc1)NC(=O)[C@@H]1C[C@@H](O)CN1C(=O)Cc1cccnn1 | > 51.8 | > 57.5
2 | CC(C)[C@@H](C(=O)N1C[C@H](O)C[C@H]1C(=O)N[C@H](Cc1ccc(-c2ccccc2)cc1)C(N)=O)c1cccnc1 | 32.1 | 24.7
3 | Cc1cnn([C@H](C(=O)N2C[C@H](O)C[C@H]2C(=O)N[C@H](Cc2ccc(-c3ccccc3)cc2)C(N)=O)C(C)C)c1 | 18.6 | 25.4
4 | NC(=O)[C@@H](Cc1ccc(-c2ccccc2)cc1)NC(=O)[C@@H]1C[C@@H](O)CN1C(=O)Cc1cccnc1 | > 51.8 | > 57.5
5 | NC(=O)[C@@H](Cc1ccc(-c2ccccc2)cc1)NC(=O)[C@@H]1C[C@@H](O)CN1C(=O)Cc1cnco1 | > 51.8 | > 57.5
6 | NC(=O)[C@@H](Cc1ccc(-c2ccccc2)cc1)NC(=O)[C@@H]1C[C@@H](O)CN1C(=O)Cc1ccon1 | > 51.8 | > 57.5
7 | Cc1cn([C@H](C(=O)N2C[C@H](O)C[C@H]2C(=O)N[C@H](Cc2ccc(-c3ccccc3)cc2)C(N)=O)C(C)C)cn1 | 48.5 | > 57.5
8 | CC(C)(C)[C@@H](C(=O)N1C[C@H](O)C[C@H]1C(=O)N[C@H](Cc1ccc(-c2ccccc2)cc1)C(N)=O)n1cc(C(=O)O)nn1 | 0.31 | 40.1
9 | C=CC(C)(C)[C@@H](C(=O)N1C[C@H](O)C[C@H]1C(=O)N[C@H](Cc1ccc(-c2ccccc2)cc1)C(N)=O)n1cc(C2CC2)nn1 | 0.084 | 0.063
10 | CC(C)(C)[C@@H](C(=O)N1C[C@H](O)C[C@H]1C(=O)N[C@H](Cc1ccc(-c2ccccc2)cc1)C(N)=O)n1cc(C2CC2)nn1 | 0.071 | 0.085
11 | NC(=O)[C@@H](Cc1ccc(-c2ccccc2)cc1)NC(=O)[C@@H]1C[C@@H](O)CN1C(=O)Cn1ccnn1 | > 51.8 | > 57.5
12 | Cc1cc(C2(C(=O)N3C[C@H](O)C[C@H]3C(=O)N[C@H](Cc3ccc(-c4ccccc4)cc3)C(N)=O)CC2)on1 | > 51.8 | > 57.5
13 | Cc1ccc(CC(=O)N2C[C@H](O)C[C@H]2C(=O)N[C@H](Cc2ccc(-c3ccccc3)cc2)C(N)=O)cn1 | > 51.8 | > 57.5
14 | CC(C)[C@@H](C(=O)N1C[C@H](O)C[C@H]1C(=O)N[C@H](Cc1ccc(-c2ccccc2)cc1)C(N)=O)c1cnn(C)c1 | 45.7 | > 57.5
15 | CC(C)(C)n1nnc(CC(=O)N2C[C@H](O)C[C@H]2C(=O)N[C@H](Cc2ccc(-c3ccccc3)cc2)C(N)=O)n1 | 48.6 | > 57.5
16 | Cc1cn(CC(=O)N2C[C@H](O)C[C@H]2C(=O)N[C@H](Cc2ccc(-c3ccccc3)cc2)C(N)=O)nn1 | > 51.8 | > 57.5
17 | CCC(C)(C)[C@@H](C(=O)N1C[C@H](O)C[C@H]1C(=O)N[C@H](Cc1ccc(-c2ccccc2)cc1)C(N)=O)n1cc(C2CC2)nn1 | 0.069 | 0.059
18 | NC(=O)[C@@H](Cc1ccc(-c2ccccc2)cc1)NC(=O)[C@@H]1C[C@@H](O)CN1C(=O)Cc1cncs1 | > 51.8 | > 57.5
19 | CC(C)(C)[C@@H](C(=O)N1C[C@H](O)C[C@H]1C(=O)N[C@H](Cc1ccc(-c2ccccc2)cc1)C(N)=O)n1cc(C(N)=O)nn1 | 0.21 | 1.9
20 | Cc1ncc(CC(=O)N2C[C@H](O)C[C@H]2C(=O)N[C@H](Cc2ccc(-c3ccccc3)cc2)C(N)=O)s1 | > 51.8 | > 57.5
21 | Cc1noc(CC(=O)N2C[C@H](O)C[C@H]2C(=O)N[C@H](Cc2ccc(-c3ccccc3)cc2)C(N)=O)n1 | > 51.8 | > 57.5
22 | CC[C@H](C)[C@@H](C(=O)N1C[C@H](O)C[C@H]1C(=O)N[C@H](Cc1ccc(-c2ccccc2)cc1)C(N)=O)n1cc(C2CC2)nn1 | 0.087 | 0.074
23 | NC(=O)[C@@H](Cc1ccc(-c2ccccc2)cc1)NC(=O)[C@@H]1C[C@@H](O)CN1C(=O)Cc1ccccn1 | > 51.8 | > 57.5
24 | CC(C)(C)[C@H](N=[N+]=[N-])C(=O)N1C[C@H](O)C[C@H]1C(=O)N[C@H](Cc1ccc(-c2ccccc2)cc1)C(N)=O | 23.9 | 35
